Assay results taken from patent US20250163074A1, “CDK Inhibitors And Their Use As Pharmaceuticals” (Prelude Therapeutics Incorporated, priority 2020, published 2025).
Read-outs that look alike come from different tables or passages of the source.

Legend:
[1] = Brain-to-plasma ratio determination in Sprague-Dawley rats; assay type: in vivo; settings: rat, male Sprague-Dawley rats, four hours after a single oral dose (3, 4, 5, or 10 mg/kg)
Method: Example B: Brain-to-Plasma Ratio Determination in Sprague-Dawley Rats
The brain-to-plasma ratio (Kp) was determined in male Sprague-Dawley rats (7-9 weeks old) four hours after a single oral dose. Rats were acclimated and given free access to standard rodent chow and water throughout the entire study. Test articles were formulated as a solution at 0.3, 0.4, 0.5, or 1.0 mg/mL in a vehicle comprised of 10:15:75 (v:v:v) dimethylacetamide (DMA):Solutol HS15:water and delivered orally at a rate of 10 mL/kg to three rats to achieve final doses of 3, 4, 5, or 10 mg/kg, respectively. At 4 hours post-dose, blood samples were collected via jugular vein cannula into tubes containing K2EDTA as the anticoagulant and stored on ice. Blood samples were then centrifuged at 4° C. at 6000 rpm for 5 minutes, and the resulting plasma was placed into tubes and stored frozen at −80° C. until analysis. Whole brain samples were also collected at 4 hours post-dose. The weight of each brain was measured and recorded, and samples were immediately stored on dry ice. Brain samples were then transferred to storage at −80° C. until analysis.
Prior to analysis, brain samples were combined with water (4 mL/1 gram of brain) and homogenized. Prior to injection, plasma and brain homogenate samples and standards were prepared for analysis by precipitation with acetonitrile or 1:1 (v:v) methanol:acetonitrile. Samples were then thoroughly mixed, centrifuged at 4000 rpm for 15 minutes, and the resulting supernatant was transferred for analysis. Test article concentrations in plasma and brain homogenate were then determined by LC-MS/MS and quantified against calibration standards prepared to known concentrations in matched blank (analyte-free) biological matrix. The Kp was then determined by dividing the dilution-corrected brain concentration by the plasma concentration from each rat. A brain density of 1 gram/mL was assumed for all calculations.

CDK6/Cyclin D1 = CDK6/Cyclin D1 (Homo sapiens (Human), UniProt Q00534); assay: CDK6/CyclinD1 enzymatic activity assay (TR-FRET); assay type: biochemical; settings: CDK6/Cyclin D1 1 nM, ATP 250 μM, read-out: CDK6_D1 IC50
Method: CDK6/CyclinD1 Enzymatic Activity Assay
The inhibitory activity of compounds was evaluated in vitro using TR-FRET assay with white 384-well low volume microplate (Greiner Bio-One). CDK6/Cyclin D1 catalyzed phosphorylation of peptide in the presence and absence of compounds was measured and used in IC50 determination. Recombinant protein complex CDK6/Cyclin D1, expressed from insect cell, was purchased from ProQinase. Testing compounds were dissolved in DMSO at 0.1 mM and tested in 9-dose IC50 mode. The reaction mixture was prepared by mixing CDK6/Cyclin D1 (1 nM final), ULight-4E-BP1 (100 nM final, Perkinelmer, TRF0128-D), and ATP (250 μM final) in assay buffer (20 mM of HEPES pH 7.4, 1 mM of EGTA, 0.05% BSA, 0.005% Tween 20, and 1 mM TCEP). The compound of interest in DMSO was added to each well in 3-fold serial dilution by dispenser (TECAN D300E). After 20 minutes preincubation at room temperature, 0.1 μL MgCl2 (10 mM final) was added to initiate the reaction. Following a 60 minutes incubation at 37° C., the reaction was stopped by addition of 2 μL of quenching buffer consisting of Lance detection buffer (Perkinelmer CR97-100C), 2 nM LANCE Ultra Europium-anti-P-4E-BP1 (Perkinelmer, TRF0216-D), 10 mM EDTA, and incubate at room temperature for additional 60 minutes in dark. The reaction signal was measured by Envision multimode plate reader (PerkinElmer, 2102-0010). IC50 values were determined by fitting the data to the standard 4 parameters with Hill Slope using GraphPad Prism software.

CDK4/Cyclin D1 = CDK4/Cyclin D1 (Homo sapiens (Human), UniProt P11802); assay: CDK4/CyclinD1 enzymatic activity assay (TR-FRET); assay type: biochemical; settings: CDK4/CyclinD1 1 nM, ATP 2 mM, read-out: CDK4_D1 IC50
How it was run: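 Insect-cell CDK4/Cyclin D1 (1 nM) with ULight-4E-BP1 (100 nM) and 2 mM ATP in HEPES pH 7.4 buffer, preincubated 20 min with compound (9-dose, 3-fold dilutions); 10 mM MgCl2 started the reaction, run 60 min at 37 °C. EDTA/Eu-anti-phospho-4E-BP1 TR-FRET detection; IC50 from 4-parameter Hill fit.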

[2] = system: MCF7 adenocarcinoma cell line; assay: Cell proliferation studies in MCF7 cells (ATP-Lite); assay type: cell-based; settings: 10 days incubation, cell viability by ATP-Lite luminescence, read-out: PROLIFERATION_CTG_MCF7 IC50
How it was run: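 MCF7 cells, seeded at 100 or 200 cells/well, were exposed for 10 days at 37 °C to a 9-point, 3-fold dilution series in quadruplicate, with media exchange and re-dosing on day 5. Viability was read by ATP-Lite luminescence, normalized to background and DMSO, and fitted for IC50.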

Chain of CDK6/Cyclin D1 (Q00534 whole entry): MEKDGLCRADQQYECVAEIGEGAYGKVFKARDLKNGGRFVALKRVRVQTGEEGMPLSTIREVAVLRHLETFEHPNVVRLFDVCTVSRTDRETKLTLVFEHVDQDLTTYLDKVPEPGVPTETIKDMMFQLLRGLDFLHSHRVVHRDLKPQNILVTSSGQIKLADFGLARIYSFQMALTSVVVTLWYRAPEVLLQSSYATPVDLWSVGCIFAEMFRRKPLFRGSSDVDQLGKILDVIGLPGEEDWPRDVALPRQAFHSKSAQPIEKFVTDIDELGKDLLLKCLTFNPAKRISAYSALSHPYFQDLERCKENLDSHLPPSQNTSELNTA
Chain of CDK6/Cyclin D1 (P24385 whole entry partner): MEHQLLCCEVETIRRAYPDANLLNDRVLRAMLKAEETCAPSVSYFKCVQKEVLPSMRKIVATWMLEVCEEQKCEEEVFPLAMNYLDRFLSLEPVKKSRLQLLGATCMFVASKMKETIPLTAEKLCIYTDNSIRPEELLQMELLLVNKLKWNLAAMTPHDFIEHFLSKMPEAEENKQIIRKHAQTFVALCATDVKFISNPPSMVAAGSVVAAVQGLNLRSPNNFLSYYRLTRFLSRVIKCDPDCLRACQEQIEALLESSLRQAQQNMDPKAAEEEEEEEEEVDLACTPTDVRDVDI
Chain of CDK4/Cyclin D1 (P11802 whole entry): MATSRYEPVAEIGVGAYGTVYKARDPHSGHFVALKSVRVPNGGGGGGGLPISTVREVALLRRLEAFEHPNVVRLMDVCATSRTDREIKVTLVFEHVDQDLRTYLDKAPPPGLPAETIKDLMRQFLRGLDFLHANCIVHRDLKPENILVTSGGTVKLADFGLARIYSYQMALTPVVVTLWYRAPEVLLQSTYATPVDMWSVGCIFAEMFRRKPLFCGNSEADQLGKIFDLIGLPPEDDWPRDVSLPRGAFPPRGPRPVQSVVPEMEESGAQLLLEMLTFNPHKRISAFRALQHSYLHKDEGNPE
Chain of CDK4/Cyclin D1 (P24385 whole entry partner): as the sequence (P24385 whole entry partner) above

Work on `CCN1CC2(C1)CN(c1ccc(Nc3ncc(F)c(-c4cc5c(s4)C4(CCCC4)CN(C)C5=O)n3)nc1)C2` [Example 1, 2′-(2-((5-(6-Ethyl-2,6-diazaspiro[3.3]heptan-2-yl)pyridin-2-yl)amino)-5-fluoropyrimidin-4-yl)-5′-methyl-5′,6′-dihydro-4′H-spiro[cyclopentane-1,7′-thieno[3,2-c]pyridin]-4′-one] yielded a Kp at 4 h [1] of 1 to 3, an IC50 (CDK6/Cyclin D1) of no more than 20 nM and an IC50 (CDK4/Cyclin D1) of no more than 20 nM. The IC50 ([2]; Homo sapiens, 240 h) was 20 to 200 nM.

In the case of `Cc1c(-c2nc(Nc3ccc(N4CC5(CCN(C)C5)C4)cn3)ncc2F)sc2c1C(=O)N(C)C21CC1` [Example 14, 2′-(5-Fluoro-2-((5-(6-methyl-2,6-diazaspiro[3.4]octan-2-yl)pyridin-2-yl)amino)pyrimidin-4-yl)-3′,5′-di methyl spiro[cyclopropane-1,6′-thieno[2,3-c]pyrrol]-4′(5′H)-one], the Kp at 4 h [1] is reported as 1 to 3, the IC50 (CDK4/Cyclin D1) is reported as no more than 20 nM and the IC50 ([2]; Homo sapiens, 240 h) is reported as no more than 20 nM.

`Cc1c(-c2nc(Nc3ccc(C4CCCN(C)C4)cn3)ncc2F)sc2c1C(=O)N(C)C21CC1` (stereo not shown) [Example 15, 2′-(5-Fluoro-2-((5-(1-methylpiperidin-3-yl)pyridin-2-yl)amino)pyrimidin-4-yl)-3′,5′-dimethylspiro[cyclopropane-1,6′-thieno[2,3-c]pyrrol]-4′(5′H)-one] gave a Kp at 4 h [1] of 1 to 3, an IC50 (CDK4/Cyclin D1) of no more than 20 nM and an IC50 ([2]; Homo sapiens, 240 h) of 20 to 200 nM.

Work on `CCN1C(=O)c2cc(-c3nc(Nc4ccc(C5CCCN(C)C5)cn4)ncc3C)sc2C12CC2` (stereo not shown) [Example 18, 5′-Ethyl-2′-[5-methyl-2-[[5-(1-methylpiperidin-3-yl)pyridin-2-yl]amino]pyrimidin-4-yl]spiro[cyclopropane-1,6′-thieno[2,3-c]pyrrole]-4′-one] yielded a Kp at 4 h [1] of 1 to 3, an IC50 (CDK4/Cyclin D1) of no more than 20 nM and an IC50 ([2]; Homo sapiens, 240 h) of 20 to 200 nM.

`Cc1c(-c2nc(Nc3ccc(N4C[C@H]5CN(C)C[C@H]5C4)cn3)ncc2F)sc2c1C(=O)N(C)CC21CCC1` [Example 57, 2′-(5-Fluoro-2-((5-((3aR,6aS)-5-methylhexahydropyrrolo[3,4-c]pyrrol-2(1H)-yl)pyridin-2-yl)amino)pyrimidin-4-yl)-3′,5′-dimethyl-5′6′-dihydro-4′H-spiro[cyclobutane-1,7′-thieno[3,2-c]pyridin]-4′-one] showed an IC50 (CDK6/Cyclin D1) of no more than 20 nM, an IC50 (CDK4/Cyclin D1) of no more than 20 nM and an IC50 [2] of 20 to 200 nM.

For `CN1CCC(c2ccc(Nc3nc(-c4cc5c(s4)C4(CCC4)CN(C)C5=O)ncc3C(F)(F)F)nc2)CC1` [Example 58], the IC50 (CDK6/Cyclin D1) was no more than 20 nM, the IC50 (CDK4/Cyclin D1) was no more than 20 nM and the IC50 [2] was no more than 20 nM.

Work on `Cc1c(-c2nc(Nc3ccc(C4CCN(C)CC4)cn3)ncc2Cl)sc2c1C(=O)N(C)CC21CCC1` [Example 60, 2-[5-Chloro-2-[[5-(1-methyl-piperidin-4-yl)pyridin-2-yl]amino]pyrimidin-4-yl]-3,5-dimethylspiro[6H-thieno[3,2-c]pyridine-7,1′-cyclobutane]-4-one] yielded an IC50 (CDK6/Cyclin D1) of no more than 20 nM, an IC50 (CDK4/Cyclin D1) of no more than 20 nM and an IC50 ([2]; Homo sapiens, 240 h) of 20 to 200 nM.

`CN1CC2(C1)CN(c1ccc(Nc3ncc(F)c(-c4cc5c(s4)C4(CCCC4)CN(C)C5=O)n3)nc1)C2` [Example 61, 2′-(5-Fluoro-2-((5-(6-(methyl-d3)-2,6-diazaspiro[3.3]heptan-2-yl)pyridin-2-yl)amino)pyrimidin-4-yl)-5,-(methyl-d3)-5′,6′-dihydro-4′H-spiro[cyclopentane-1,7′-thieno[3,2-c]pyridin]-4′-one] gave an IC50 (CDK6/Cyclin D1) of no more than 20 nM, an IC50 (CDK4/Cyclin D1) of no more than 20 nM and an IC50 [2] of no more than 20 nM.

In the case of `CN1CC2(CCCC2)c2sc(-c3nc(Nc4ccc(N5CCOCC5)cn4)ncc3F)cc2C1=O` [Example 62, 2′-(5-Fluoro-2-((5-morpholino-pyridin-2-yl)amino)pyrimidin-4-yl)-5′-methyl-5′,6′-dihydro-4′H-spiro[cyclopentane-1,7′-thieno[3,2-c]pyridin]-4′-one], the IC50 (CDK6/Cyclin D1) is reported as 20 to 200 nM, the IC50 (CDK4/Cyclin D1) is reported as no more than 20 nM and the IC50 ([2]; Homo sapiens, 240 h) is reported as 20 to 200 nM.

Molecule `[2H]C([2H])([2H])N1C(=O)c2c(sc(-c3nc(Nc4ccc(C5CCN(C)CC5)cn4)ncc3F)c2C)C12CC2` [Example 70, 2′-[5-Fluoro-2-[[5-(1-methylpiperidin-4-yl)pyridin-2-yl]amino]pyrimidin-4-yl]-3′-methyl-5′-(trideuteriomethyl)spiro[cyclopropane-1,6′-thieno[2,3-c]pyrrole]-4′-one] has an IC50 (CDK6/Cyclin D1) of no more than 20 nM, an IC50 (CDK4/Cyclin D1) of no more than 20 nM and an IC50 ([2]; Homo sapiens, 240 h) of 20 to 200 nM.

Work on `Cc1c(-c2nc(Nc3ccc(C4CCN(C)CC4)cn3)ncc2F)sc2c1C(=O)NC21CC1` [Example 73, 2-[5-Fluoro-2-[[5-(1-methylpiperidin-4-yl)pyridin-2-yl]amino]pyrimidin-4-yl]-3-methylspiro[5H-thieno[2,3-c]pyrrole-6,1′-cyclopropane]-4-one] yielded an IC50 (CDK6/Cyclin D1) of no more than 20 nM, an IC50 (CDK4/Cyclin D1) of no more than 20 nM and an IC50 ([2]; Homo sapiens, 240 h) of no more than 20 nM.

With `CN1CCC(c2ccc(Nc3ncc(F)c(-c4cc5c(n4C)C4(CCCC4)CN(C)C5=O)n3)nc2)CC1` [Example 74, 2′-(5-Fluoro-2-((5-(1-methylpiperidin-4-yl)pyridin-2-yl)amino)pyrimidin-4-yl)-1′,5′-dimethyl-5′,6′-dihydrospiro[cyclopentane-1,7′-pyrrolo[3,2-c]pyridin]-4′(1′H)-one] the IC50 (CDK6/Cyclin D1) was 20 to 200 nM, the IC50 (CDK4/Cyclin D1) was no more than 20 nM and the IC50 ([2]; Homo sapiens, 240 h) was 20 to 200 nM.

`CN1CCC(c2ccc(Nc3ncc(F)c(-c4cc5c(s4)C4(CCOCC4)CN(C)C5=O)n3)nc2)CC1` [Example 77, 2′-(5-Fluoro-2-((5-(1-methylpiperidin-4-yl)pyridin-2-yl)amino)pyrimidin-4-yl)-5′-methyl-2,3,5,5′,6,6′-hexahydro-4′H-spiro[pyran-4,7′-thieno[3,2-c]pyridin]-4′-one] gave an IC50 (CDK6/Cyclin D1) of 20 to 200 nM, an IC50 (CDK4/Cyclin D1) of no more than 20 nM and an IC50 ([2]; Homo sapiens, 240 h) of 20 to 200 nM.

`Cc1cnc(Nc2ccc(C3CCN(C)CC3)cn2)nc1-c1cc2c(s1)C1(CC1)N(C)C2=O` [Example 80, 5′-Methyl-2′-(5-methyl-2-((5-(1-methylpiperidin-4-yl)pyridin-2-yl)amino)pyrimidin-4-yl)spiro[cyclopropane-1,6′-thieno[2,3-c]pyrrol]-4′(5′H)-one] showed an IC50 (CDK6/Cyclin D1) of 20 to 200 nM, an IC50 (CDK4/Cyclin D1) of no more than 20 nM and an IC50 ([2]; Homo sapiens, 240 h) of no more than 20 nM.

`CCN1CC2(C1)CN(c1ccc(Nc3ncc(F)c(-c4cc5c(s4)C4(CCCC4)CN(C)C5=O)n3)nn1)C2` [Example 82, 2-[2-[[6-(6-Ethyl-2,6-diazaspiro[3.3]heptan-2-yl)pyridazin-3-yl]amino]-5-fluoropyrimidin-4-yl]-5-methylspiro[6H-thieno[3,2-c]pyridine-7,1′-cyclopentane]-4-one] gave an IC50 (CDK6/Cyclin D1) of no more than 20 nM, an IC50 (CDK4/Cyclin D1) of no more than 20 nM and an IC50 ([2]; Homo sapiens, 240 h) of 20 to 200 nM.

`CCN1CCN(c2ccc(Nc3ncc(F)c(-c4cc5c(s4)C4(CCCC4)CN(C)C5=O)n3)nc2)C(=O)C1` [Example 86, 2-[2-[[5-(4-Ethyl-2-oxopiperazin-1-yl)pyridin-2-yl]amino]-5-fluoropyrimidin-4-yl]-5-methylspiro[6H-thieno[3,2-c]pyridine-7,1′-cyclopentane]-4-one] showed an IC50 (CDK6/Cyclin D1) of 20 to 200 nM, an IC50 (CDK4/Cyclin D1) of no more than 20 nM and an IC50 ([2]; Homo sapiens, 240 h) of 20 to 200 nM.
